Consider 21 compounds from ChEMBL document CHEMBL3991601, “The target landscape of clinical kinase drugs” (Science, 2017).

Assay [1] concerns the target T1, Long-chain-fatty-acid--CoA ligase 5 (Homo sapiens, UniProt Q9ULC5).
T1 sequence (Q9ULC5 whole entry): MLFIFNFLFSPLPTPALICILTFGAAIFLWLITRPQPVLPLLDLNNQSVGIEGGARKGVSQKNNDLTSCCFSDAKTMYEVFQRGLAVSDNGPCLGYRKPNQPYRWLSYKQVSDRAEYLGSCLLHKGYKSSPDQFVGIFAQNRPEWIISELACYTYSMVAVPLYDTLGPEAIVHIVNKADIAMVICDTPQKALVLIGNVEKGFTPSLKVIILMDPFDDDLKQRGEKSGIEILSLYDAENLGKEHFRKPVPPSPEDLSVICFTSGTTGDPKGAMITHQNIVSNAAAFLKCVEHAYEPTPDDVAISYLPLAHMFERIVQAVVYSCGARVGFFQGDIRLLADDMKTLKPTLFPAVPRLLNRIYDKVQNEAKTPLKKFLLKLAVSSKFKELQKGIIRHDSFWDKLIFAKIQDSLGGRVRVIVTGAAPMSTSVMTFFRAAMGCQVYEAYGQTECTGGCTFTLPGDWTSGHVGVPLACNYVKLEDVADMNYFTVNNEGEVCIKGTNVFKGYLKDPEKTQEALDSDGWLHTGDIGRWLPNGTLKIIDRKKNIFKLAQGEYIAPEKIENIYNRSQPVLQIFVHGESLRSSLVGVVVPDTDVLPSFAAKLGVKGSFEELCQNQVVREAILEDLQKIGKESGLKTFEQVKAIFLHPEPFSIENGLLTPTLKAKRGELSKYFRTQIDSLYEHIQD

In assay [2] the target is T2, Electron transfer flavoprotein subunit beta (Homo sapiens, UniProt P38117).
T2 sequence (P38117 whole entry): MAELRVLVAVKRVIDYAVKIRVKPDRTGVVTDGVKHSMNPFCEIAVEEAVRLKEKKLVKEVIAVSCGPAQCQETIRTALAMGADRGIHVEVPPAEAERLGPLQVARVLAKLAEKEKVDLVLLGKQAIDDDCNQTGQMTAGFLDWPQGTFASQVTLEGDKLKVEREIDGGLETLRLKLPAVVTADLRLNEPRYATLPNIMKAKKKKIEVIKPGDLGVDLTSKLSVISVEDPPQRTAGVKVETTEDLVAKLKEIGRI

Assay [3] deals with Serine/threonine-protein kinase PAK 6 (Homo sapiens, UniProt Q9NQU5).
Sequence of Serine/threonine-protein kinase PAK 6 (Q9NQU5 whole entry): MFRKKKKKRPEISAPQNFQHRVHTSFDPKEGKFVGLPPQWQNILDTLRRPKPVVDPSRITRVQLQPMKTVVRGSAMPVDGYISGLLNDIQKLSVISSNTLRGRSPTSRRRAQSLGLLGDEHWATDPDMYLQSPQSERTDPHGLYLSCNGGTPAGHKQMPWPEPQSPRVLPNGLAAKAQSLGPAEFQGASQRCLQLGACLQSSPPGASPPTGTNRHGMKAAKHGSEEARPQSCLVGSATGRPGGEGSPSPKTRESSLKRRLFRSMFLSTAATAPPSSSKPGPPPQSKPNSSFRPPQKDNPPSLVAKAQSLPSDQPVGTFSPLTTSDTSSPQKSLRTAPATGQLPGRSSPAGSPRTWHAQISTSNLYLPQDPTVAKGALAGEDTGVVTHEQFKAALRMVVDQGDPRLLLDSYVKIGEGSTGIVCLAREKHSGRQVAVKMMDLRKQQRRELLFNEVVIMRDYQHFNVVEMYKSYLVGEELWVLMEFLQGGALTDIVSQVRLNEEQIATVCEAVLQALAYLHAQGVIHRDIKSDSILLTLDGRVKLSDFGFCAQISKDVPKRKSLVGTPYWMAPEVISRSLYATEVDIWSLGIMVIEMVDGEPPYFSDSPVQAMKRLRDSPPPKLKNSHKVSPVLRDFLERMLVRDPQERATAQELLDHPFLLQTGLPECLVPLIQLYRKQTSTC
The target in assay [4] is Choline-phosphate cytidylyltransferase A (Homo sapiens, UniProt P49585).
Sequence of Choline-phosphate cytidylyltransferase A (P49585 whole entry): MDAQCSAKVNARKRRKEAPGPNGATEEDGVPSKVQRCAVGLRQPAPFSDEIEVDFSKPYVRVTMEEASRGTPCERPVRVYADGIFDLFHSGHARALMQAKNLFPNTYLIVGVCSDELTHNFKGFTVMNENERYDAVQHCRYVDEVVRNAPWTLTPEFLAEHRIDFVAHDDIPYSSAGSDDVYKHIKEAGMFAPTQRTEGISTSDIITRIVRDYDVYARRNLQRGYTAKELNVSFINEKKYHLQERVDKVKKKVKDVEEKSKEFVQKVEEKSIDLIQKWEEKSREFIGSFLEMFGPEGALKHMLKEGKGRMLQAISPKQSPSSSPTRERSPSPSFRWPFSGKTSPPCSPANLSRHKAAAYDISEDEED
Assay [5] addresses Serine/threonine-protein kinase N3 (Homo sapiens, UniProt Q6P5Z2).
Assay [6] deals with Dual specificity protein kinase CLK3 (Homo sapiens, UniProt P49761). Format: subcellular, K-562, COLO 205, SK-N-BE(2) and MV-4-11, Cell lysate. Particulars: read-out: Kd apparent.
Sequence of Dual specificity protein kinase CLK3 (P49761 whole entry): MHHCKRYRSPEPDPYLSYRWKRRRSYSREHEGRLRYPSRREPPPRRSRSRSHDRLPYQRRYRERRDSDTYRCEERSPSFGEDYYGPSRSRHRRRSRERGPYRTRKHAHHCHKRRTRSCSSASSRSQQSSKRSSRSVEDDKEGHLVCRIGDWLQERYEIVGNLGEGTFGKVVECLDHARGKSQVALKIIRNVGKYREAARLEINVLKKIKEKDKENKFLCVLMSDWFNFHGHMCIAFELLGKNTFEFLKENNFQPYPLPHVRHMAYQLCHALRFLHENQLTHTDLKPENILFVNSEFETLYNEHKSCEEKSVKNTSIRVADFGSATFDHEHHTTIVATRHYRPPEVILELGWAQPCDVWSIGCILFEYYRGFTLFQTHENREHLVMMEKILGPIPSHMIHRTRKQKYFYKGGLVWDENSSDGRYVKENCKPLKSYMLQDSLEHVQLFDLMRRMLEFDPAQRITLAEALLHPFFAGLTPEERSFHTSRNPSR
The target of assay [7] is T3, Dual specificity protein kinase TTK (Homo sapiens, UniProt P33981).
T3 sequence (P33981 whole entry): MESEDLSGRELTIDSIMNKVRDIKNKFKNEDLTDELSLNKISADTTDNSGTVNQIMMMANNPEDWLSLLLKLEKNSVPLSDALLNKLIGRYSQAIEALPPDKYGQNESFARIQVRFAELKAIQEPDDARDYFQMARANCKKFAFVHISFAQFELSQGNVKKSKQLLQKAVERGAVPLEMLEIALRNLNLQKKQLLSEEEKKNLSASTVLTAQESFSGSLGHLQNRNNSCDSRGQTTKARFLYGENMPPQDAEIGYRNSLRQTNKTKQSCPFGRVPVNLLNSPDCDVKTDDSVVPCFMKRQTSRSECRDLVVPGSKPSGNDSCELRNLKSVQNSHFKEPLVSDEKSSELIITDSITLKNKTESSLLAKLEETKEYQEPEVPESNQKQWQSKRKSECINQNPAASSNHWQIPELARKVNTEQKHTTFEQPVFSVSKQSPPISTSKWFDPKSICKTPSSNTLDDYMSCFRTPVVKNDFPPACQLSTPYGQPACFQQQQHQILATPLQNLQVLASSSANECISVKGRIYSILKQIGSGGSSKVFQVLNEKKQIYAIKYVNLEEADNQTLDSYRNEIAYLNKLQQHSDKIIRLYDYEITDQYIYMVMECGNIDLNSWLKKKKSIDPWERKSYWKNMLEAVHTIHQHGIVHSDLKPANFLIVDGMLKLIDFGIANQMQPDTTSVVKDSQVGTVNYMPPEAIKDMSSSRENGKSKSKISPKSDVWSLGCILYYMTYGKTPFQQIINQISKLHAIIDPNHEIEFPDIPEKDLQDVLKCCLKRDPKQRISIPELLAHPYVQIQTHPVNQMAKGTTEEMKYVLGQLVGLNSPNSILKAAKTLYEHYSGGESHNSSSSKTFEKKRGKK

Structures are written as SMILES. Active and inactive are the calls of the source. On the calls: in the data inactive means no Kd found up to 30 µM.

Sequence of Serine/threonine-protein kinase N3 (Q6P5Z2 whole entry): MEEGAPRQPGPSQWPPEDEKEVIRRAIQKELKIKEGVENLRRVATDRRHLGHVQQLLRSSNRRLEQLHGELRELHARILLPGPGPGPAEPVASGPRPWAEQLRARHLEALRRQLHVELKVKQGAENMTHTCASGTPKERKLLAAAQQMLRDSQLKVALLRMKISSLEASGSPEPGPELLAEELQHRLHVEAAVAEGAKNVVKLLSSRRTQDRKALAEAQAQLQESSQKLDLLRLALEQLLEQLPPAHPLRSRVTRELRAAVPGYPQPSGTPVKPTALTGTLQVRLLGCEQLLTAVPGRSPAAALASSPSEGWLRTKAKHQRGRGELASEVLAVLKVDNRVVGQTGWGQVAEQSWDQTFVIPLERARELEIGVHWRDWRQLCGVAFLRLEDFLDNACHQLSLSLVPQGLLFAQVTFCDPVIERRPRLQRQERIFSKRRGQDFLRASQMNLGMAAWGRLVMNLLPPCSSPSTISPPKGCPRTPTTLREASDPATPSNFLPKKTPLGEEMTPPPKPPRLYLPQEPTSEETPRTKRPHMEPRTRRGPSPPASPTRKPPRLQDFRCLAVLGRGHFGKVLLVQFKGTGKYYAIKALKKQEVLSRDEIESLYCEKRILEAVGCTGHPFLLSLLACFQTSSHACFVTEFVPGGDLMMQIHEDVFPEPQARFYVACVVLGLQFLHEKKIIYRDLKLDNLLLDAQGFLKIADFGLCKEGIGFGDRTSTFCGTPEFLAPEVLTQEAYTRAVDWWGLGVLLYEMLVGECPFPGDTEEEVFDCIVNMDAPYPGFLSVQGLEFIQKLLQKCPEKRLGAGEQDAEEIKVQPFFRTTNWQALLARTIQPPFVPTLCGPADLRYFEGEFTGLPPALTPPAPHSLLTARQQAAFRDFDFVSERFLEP

Regarding `Cc1nc2cc(-c3nn(C(C)C)c4ncnc(N)c34)ccc2o1`, the Kd in assay [1] was > 30 µM (inactive); in assay [2], > 30 µM (inactive); in assay [3], > 30 µM (inactive); in assay [4] it was > 30 µM (inactive); in assay [5], 0.013 µM.
Consider `O=C(Nc1c[nH]nc1-c1nc2cc(CN3CCOCC3)ccc2[nH]1)NC1CC1` [AT-9283], for which the Kd in assay [6] was > 30 µM (inactive); in assay [1], > 30 µM (inactive); in assay [2], > 30 µM (inactive); in assay [3], 0.213 µM (active); in assay [4], > 30 µM (inactive); in assay [5] it was > 30 µM (inactive). For the same compound, the Kd in assay [7] is > 30 µM (inactive).
As for `Cc1cc(C(=O)NOCCO)c(Nc2ccc(I)cc2F)n(C)c1=O` [AZD-8330], the Kd in assay [6], in assay [4], in assay [5] and in assay [7] was > 30 µM (inactive) in each case.
In the case of `COCC(=O)NC/C=C/c1ccc2ncnc(Nc3ccc(Oc4ccc(C)nc4)c(C)c3)c2c1` [CP-724714], the Kd in assay [1], in assay [2], in assay [3], in assay [4] and in assay [5] was > 30 µM (inactive) in each case.
As to `C#Cc1cccc(Nc2ncnc3cc(OC)c(OCCCCCCC(=O)NO)cc23)c1` [CUDC-101], the Kd in assay [6], in assay [1], in assay [2], in assay [3], in assay [4] and in assay [5] was > 30 µM (inactive) each time. Besides, the Kd in assay [7] is > 30 µM (inactive).
Take `CC(C)(C)c1nc(-c2cccc(NS(=O)(=O)c3c(F)cccc3F)c2F)c(-c2ccnc(N)n2)s1` [DABRAFENIB]: the Kd in assay [6], in assay [2], in assay [3], in assay [4], in assay [5] and in assay [7] was > 30 µM (inactive) each time.
For the compound `CCn1cc(-c2ccnc3[nH]c(-c4cccc(CN(C)C)c4)cc23)c(-c2ccc(NC(=O)N(C)C)cc2)n1` [GSK-1070916], the Kd in assay [6], in assay [3], in assay [4], in assay [5] and in assay [7] was > 30 µM (inactive) throughout.
`COc1ccc(S(=O)(=O)N(C(C)=O)c2ccccc2/C=C/c2cc[n+]([O-])cc2)cc1` [HMN-214]: the Kd in assay [6], in assay [3], in assay [4] and in assay [5] was > 30 µM (inactive) throughout.
Take `O=C(Nc1cc(C(F)(F)F)cc(C(F)(F)F)c1)c1cc(Cl)ccc1O` [IMD-0354]: the Kd in assay [6], in assay [3], in assay [4] and in assay [7] was > 30 µM (inactive) each time.
As for `CNC(=O)c1cccc2cc(Oc3ccnc4cc(OCC5(N)CC5)c(OC)cc34)ccc12` [LUCITANIB], the Kd in assay [2], in assay [4], in assay [5] and in assay [7] was > 30 µM (inactive) in each case.
On to `CNC(=O)c1nn(C)c2c1C(C)(C)Cc1cnc(Nc3ccc(N4CCN(C)CC4)cc3)nc1-2` [MILCICLIB], for which the Kd in assay [6], in assay [1], in assay [3], in assay [4], in assay [5] and in assay [7] was > 30 µM (inactive) each time.
As for `NC1(c2ccc(-c3nc4ccn5c(=O)[nH]nc5c4cc3-c3ccccc3)cc2)CCC1` [MK-2206], the Kd in assay [1], in assay [3], in assay [4] and in assay [5] was > 30 µM (inactive) in each case.
In the case of `CC(=O)NCC(=O)N1[C@@H]2CC[C@H]1c1ccc(Nc3ncc(C(F)(F)F)c(NC4CCC4)n3)cc12` [PF-03814735], the Kd in assay [6], in assay [1], in assay [4] and in assay [7] was > 30 µM (inactive) in each case.
`Cc1cnc(NC(=O)Nc2cc(Br)c(C)cc2OC[C@@H]2CNCCO2)cn1` [RABUSERTIB]: the Kd in assay [6], in assay [1], in assay [2], in assay [3], in assay [4] and in assay [5] was > 30 µM (inactive) each time.
For `CNC(=O)c1cc(Oc2ccc(NC(=O)Nc3cc(C(C)(C)C)nn3-c3ccc4ncccc4c3)c(F)c2)ccn1` [REBASTINIB], the Kd in assay [6], in assay [4], in assay [5] and in assay [7] was > 30 µM (inactive) throughout.
In the case of `CO[C@H]1C[C@@H]2CC[C@@H](C)[C@@](O)(O2)C(=O)C(=O)N2CCCC[C@H]2C(=O)O[C@H]([C@H](C)C[C@@H]2CC[C@@H](O)[C@H](OC)C2)CC(=O)[C@H](C)/C=C(\C)[C@@H](O)[C@@H](OC)C(=O)[C@H](C)C[C@H](C)/C=C/C=C/C=C/1C` [SIROLIMUS], the Kd in assay [6], in assay [2], in assay [4], in assay [5] and in assay [7] was > 30 µM (inactive) throughout.
As for `COc1cc2c(Nc3ccc(Cl)c(Cl)c3F)ncnc2cc1OC[C@@H]1C[C@@H]2CN(C)C[C@@H]2C1` [TESEVATINIB], the Kd in assay [6], in assay [1], in assay [3], in assay [4], in assay [5] and in assay [7] was > 30 µM (inactive) throughout.
As for `O=C(Cc1ccc(-c2ccc(OCCN3CCOCC3)cc2)cn1)NCc1ccccc1` [TIRBANIBULIN], the Kd in assay [6], in assay [1], in assay [2] and in assay [4] was > 30 µM (inactive) each time.
With `C[C@@H](NC(=O)c1ncnc(N)c1Cl)c1ncc(C(=O)Nc2cc(C(F)(F)F)c(Cl)cn2)s1` [TOVORAFENIB], the Kd in assay [6], in assay [3], in assay [4], in assay [5] and in assay [7] was > 30 µM (inactive) each time.
`CC(C)c1cc(CNc2nc(Nc3cc(C4CC4)[nH]n3)cc(N3CCN(C)CC3)n2)on1` [XL-228]: the Kd in assay [1], in assay [3], in assay [4] and in assay [7] was > 30 µM (inactive) throughout.
Regarding `C[C@@H](N)c1ccc(C(=O)Nc2ccnc3[nH]ccc23)cc1` [Y-39983], the Kd in assay [1], in assay [3], in assay [4] and in assay [5] was > 30 µM (inactive) in each case.
